Results from PubChem BioAssay AID248 (DTP/NCI, 2004).
Several values for one entry are separate records, joined by “and”; a condition that tells them apart may be missing. Identical values can stand only once. Toxic doses and inconclusive results are not listed. Rule as the data show it: active = T/C of 150% or more; inactive = T/C below 125%.

System: L1210 leukemia ip in BDF1 mice, survival T/C
Test: NCI In Vivo Anticancer Drug Screen. Data for tumor model L1210 Leukemia (intraperitoneal) in B6D2F1 (BDF1) mice
Details: endpoint: mean survival time, higher = longer survival
Outline: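 Mice bearing the transplanted tumor received compound or vehicle. Survival of the treated group was divided by that of the vehicle-treated control group to give the ratio.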

[1] = dose: 50.0 mg/kg/injection, schedule: Q01DX009 (ip), vehicle: saline with Tween-80
[2] = dose: 100.0 mg/kg/injection, schedule: Q01DX009 (ip), vehicle: saline with Tween-80
[3] = dose: 100.0 mg/kg/injection, schedule: Q01DX001 (ip), vehicle: saline
[4] = dose: 200.0 mg/kg/injection, schedule: Q01DX001 (ip), vehicle: saline
[5] = dose: 400.0 mg/kg/injection, schedule: Q01DX001 (ip), vehicle: saline
[6] = dose: 200.0 mg/kg/injection, schedule: Q01DX009 (ip), vehicle: saline with Tween-80
[7] = dose: 100.0 mg/kg/injection, schedule: Q04DX003 (ip), vehicle: saline with Tween-80
[8] = dose: 200.0 mg/kg/injection, schedule: Q04DX003 (ip), vehicle: saline with Tween-80
[9] = dose: 400.0 mg/kg/injection, schedule: Q04DX003 (ip), vehicle: saline with Tween-80
[10] = dose: 100.0 mg/kg/injection, schedule: Q04DX003 (ip), vehicle: saline
[11] = dose: 200.0 mg/kg/injection, schedule: Q04DX003 (ip), vehicle: saline
[12] = dose: 400.0 mg/kg/injection, schedule: Q04DX003 (ip), vehicle: saline
[13] = dose: 50.0 mg/kg/injection, schedule: Q01DX001 (ip), vehicle: carboxymethylcellulose (CMC)
[14] = dose: 100.0 mg/kg/injection, schedule: Q01DX001 (ip), vehicle: carboxymethylcellulose (CMC)
[15] = dose: 200.0 mg/kg/injection, schedule: Q01DX001 (ip), vehicle: carboxymethylcellulose (CMC)
[16] = dose: 400.0 mg/kg/injection, schedule: Q01DX001 (ip), vehicle: carboxymethylcellulose (CMC)
[17] = dose: 400.0 mg/kg/injection, schedule: Q01DX009 (ip), vehicle: saline with Tween-80
[18] = dose: 6.25 mg/kg/injection, schedule: Q01DX009 (ip), vehicle: saline with Tween-80
[19] = dose: 12.5 mg/kg/injection, schedule: Q01DX009 (ip), vehicle: saline with Tween-80
[20] = dose: 100.0 mg/kg/injection, schedule: Q01DX009 (ip), vehicle: saline
[21] = dose: 200.0 mg/kg/injection, schedule: Q01DX009 (ip), vehicle: saline
[22] = dose: 400.0 mg/kg/injection, schedule: Q01DX009 (ip), vehicle: saline
[23] = dose: 50.0 mg/kg/injection, schedule: Q04DX003 (ip), vehicle: saline
[24] = dose: 100.0 mg/kg/injection, schedule: Q04DX003 (ip), vehicle: Klucel (hydroxypropylcellulose) (HPC)
[25] = dose: 200.0 mg/kg/injection, schedule: Q04DX003 (ip), vehicle: Klucel (hydroxypropylcellulose) (HPC)
[26] = dose: 400.0 mg/kg/injection, schedule: Q04DX003 (ip), vehicle: Klucel (hydroxypropylcellulose) (HPC)

Measured: T/C

CCCCOC(=S)SSC(=S)OCCCC
inactive: dose: 25.0 mg/kg/injection, schedule: Q01DX009 (ip), vehicle: saline with Tween-80 97 % of control | [1] 93 % of control | [2] 103 % of control and 104 % of control

CC(=O)c1ccc2[nH]c(C)cc(=O)c2c1
inactive: [3] 94 % of control | [4] 107 % of control | [5] 96 % of control

O=[N+]([O-])c1ccc(/C=C/C=C/c2ccc(Cl)cc2Cl)cc1
inactive: [2] 94 % of control | [6] 94 % of control

CC(=O)Nc1ccc(S(=O)(=O)OCCC#N)cc1
inactive: [7] 99 % of control | [8] 99 % of control | [9] 90 % of control

O=C(COCc1ccccc1)OCc1ccccc1
inactive: dose: 100.0 mg/kg/injection, schedule: Q01DX009 (ip), vehicle: saline sonified 100 % of control | dose: 100.0 mg/kg/injection, schedule: Q04DX003 (ip), vehicle: saline sonified 90 % of control | [10] 98 % of control | dose: 200.0 mg/kg/injection, schedule: Q01DX009 (ip), vehicle: saline sonified 102 % of control | dose: 200.0 mg/kg/injection, schedule: Q04DX003 (ip), vehicle: saline sonified 114 % of control | [11] 94 % of control | dose: 400.0 mg/kg/injection, schedule: Q01DX009 (ip), vehicle: saline sonified 98 % of control | dose: 400.0 mg/kg/injection, schedule: Q04DX003 (ip), vehicle: saline sonified 106 % of control | [12] 94 % of control

COC1=CC(=O)CC(C)C12Oc1c(Cl)c(OC)cc(OC)c1C2=O (stereo not given)
inactive: dose: 5.0 mg/kg/injection, schedule: Q## X008 (ip), vehicle: other 103 % of control | dose: 10.0 mg/kg/injection, schedule: Q## X008 (ip), vehicle: other 91 % of control | dose: 20.0 mg/kg/injection, schedule: Q## X008 (ip), vehicle: other 94 % of control | dose: 40.0 mg/kg/injection, schedule: Q## X008 (ip), vehicle: other 91 % of control | dose: 50.0 mg/kg/injection, schedule: Q## X024 (ip), vehicle: other 111 % of control | dose: 80.0 mg/kg/injection, schedule: Q## X008 (ip), vehicle: other 88 % of control | dose: 100.0 mg/kg/injection, schedule: Q## X024 (ip), vehicle: other 100 % of control | dose: 200.0 mg/kg/injection, schedule: Q## X024 (ip), vehicle: other 100 % of control | dose: 400.0 mg/kg/injection, schedule: Q## X024 (ip), vehicle: other 95 % of control | dose: 800.0 mg/kg/injection, schedule: Q## X024 (ip), vehicle: other 100 % of control

Nn1cnnc1N/N=C/c1ccccc1Cl
inactive: [13] 94 % of control | [14] 96 % of control | [15] 94 % of control | [16] 90 % of control

COc1ccc(N=Nc2ccccn2)cc1
inactive: dose: 50.0 mg/kg/injection, schedule: Q01DX001 (ip), vehicle: Klucel (hydroxypropylcellulose) (HPC) 103 % of control | dose: 100.0 mg/kg/injection, schedule: Q01DX001 (ip), vehicle: Klucel (hydroxypropylcellulose) (HPC) 105 % of control | dose: 200.0 mg/kg/injection, schedule: Q01DX001 (ip), vehicle: Klucel (hydroxypropylcellulose) (HPC) 103 % of control

O=C1c2ccccc2C(=O)N1OC1CCCCO1 (stereo not given)
inactive: dose: 100.0 mg/kg/injection, schedule: Q01DX009 (ip), vehicle: Klucel (hydroxypropylcellulose) (HPC) 104 % of control | dose: 200.0 mg/kg/injection, schedule: Q01DX009 (ip), vehicle: Klucel (hydroxypropylcellulose) (HPC) 110 % of control | dose: 400.0 mg/kg/injection, schedule: Q01DX009 (ip), vehicle: Klucel (hydroxypropylcellulose) (HPC) 97 % of control

CCC(C)OC(=O)Nc1cccc(O)c1 (stereo not given)
inactive: [2] 91 % of control | [6] 89 % of control | [17] 90 % of control

O=[N+]([O-])/C=C/c1ccc2ccccc2n1
inactive: [18] 97 % of control | [19] 97 % of control | [1] 87 % of control | [7] 93 % of control | [8] 95 % of control

CC(O)CNC(=O)C(C)(C)O (stereo not given)
inactive: [20] 96 % of control | [21] 96 % of control | [22] 94 % of control

C/C=C/C[P+](Cc1cccc(C)c1)(c1ccccc1)c1ccccc1
inactive: dose: 3.13 mg/kg/injection, schedule: Q01DX009 (ip), vehicle: saline with Tween-80 107 % of control | [18] 113 % of control | [19] 98 % of control

CCCCOc1ccc(OC(=O)Nc2cccc(C(F)(F)F)c2)cc1
inactive: [2] 96 % of control | [6] 94 % of control | [17] 94 % of control

COC(=S)S
inactive: [3] 108 % of control | [4] 108 % of control | [5] 105 % of control

Nc1ccc(OCCCOc2ccccc2)cc1
inactive: dose: 100.0 mg/kg/injection, schedule: Q01DX001 (ip), vehicle: saline with Tween-80 102 % of control | [2] 101 % of control | dose: 200.0 mg/kg/injection, schedule: Q01DX001 (ip), vehicle: saline with Tween-80 102 % of control | [6] 112 % of control | dose: 400.0 mg/kg/injection, schedule: Q01DX001 (ip), vehicle: saline with Tween-80 97 % of control

C=CCOP(OCC=C)OCC=C
inactive: dose: 25.0 mg/kg/injection, schedule: Q01DX009 (ip), vehicle: saline 103 % of control | dose: 50.0 mg/kg/injection, schedule: Q01DX009 (ip), vehicle: saline 103 % of control | [23] 97 % of control | [20] 87 % of control | [10] 101 % of control

Cc1cccc(Sc2cccc3c2C(C)(O)c2c(Sc4cccc(C)c4)cccc2C3(C)O)c1 (stereo not given)
inactive: [7] 96 % of control | [8] 95 % of control | [9] 96 % of control

COc1cc(C(O)C(Cl)(Cl)Cl)ccc1O (stereo not given)
inactive: dose: 100.0 mg/kg/injection, schedule: Q04DX003 (ip), vehicle: other 105 % of control | dose: 200.0 mg/kg/injection, schedule: Q04DX003 (ip), vehicle: other 105 % of control | dose: 400.0 mg/kg/injection, schedule: Q04DX003 (ip), vehicle: other 102 % of control

CN(C)N=Nc1c(Br)cc(Br)cc1Br
inactive: [1] 87 % of control | [2] 102 % of control | [6] 105 % of control

C=COCCCCOC=C
inactive: [24] 113 % of control | [25] 105 % of control | [26] 105 % of control

COC(=O)/C=C(\C(=O)OC)n1ccccc1=O
inactive: dose: 5.0 mg/kg/injection, schedule: Q01DX001 (ip), vehicle: saline 101 % of control | dose: 10.0 mg/kg/injection, schedule: Q01DX001 (ip), vehicle: saline 98 % of control | dose: 20.0 mg/kg/injection, schedule: Q01DX001 (ip), vehicle: saline 95 % of control | dose: 40.0 mg/kg/injection, schedule: Q01DX001 (ip), vehicle: saline 102 % of control

CSc1nc(Cl)cc(/N=C/N(C)C)n1
inactive: [7] 95 % of control | [8] 115 % of control | [9] 111 % of control

O=C1NC(c2ccccc2)(c2ccccc2)C(=O)N1CCO
inactive: [3] 100 % of control | [20] 96 % of control | [10] 107 % of control | [4] 92 % of control | [21] 96 % of control | [11] 104 % of control | [5] 102 % of control | [22] 90 % of control | [12] 98 % of control

O=c1[nH]nc(/C=C/c2ccccc2)o1
inactive: [23] 103 % of control | [10] 95 % of control | [11] 97 % of control

Cc1cc(N(CCCl)CCCl)ccc1CN1CCCN(Cc2ccc(N(CCCl)CCCl)cc2C)C1c1ccccc1O
inactive: [13] 106 % of control | [14] 103 % of control | [24] 117 % of control | [15] 103 % of control | [25] 110 % of control | [16] 103 % of control | [26] 122 % of control

CCCCNc1cc(Nc2ccc(Br)cc2)nc(N)n1
inactive: [3] 102 % of control | [4] 98 % of control
